Laboratory results reported in the supplement of paper PMC10307832.

How the values were obtained:
Assay in all cases: relative viability (nuclei count vs DMSO), 5 days (fraction); higher = more cells survive
IU1-47 + Dasatinib = compound: CC1=CC(=C(N1C2=CC=C(C=C2)Cl)C)C(=O)CN3CCCCC3 [IU1-47] + Cc1nc(Nc2ncc(C(=O)Nc3c(C)cccc3Cl)s2)cc(N2CCN(CCO)CC2)n1 [Dasatinib] (partner 0.075 µM)
Outline: (§1)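 Each reported value is a median over duplicate plates. It expresses relative viability: treated-well nuclei count divided by vehicle-well nuclei count. Lung cancer cell lines in 1536-well plates were dosed by pin tool a day after seeding, alone with one drug or with a fixed anchor-drug dose plus five library-drug doses (not always all listed) in √10 steps, and nuclei were counted after 5 days.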

FG-4592 + Trametinib = compound: Cc1nc(C(=O)NCC(=O)O)c(O)c2ccc(Oc3ccccc3)cc12 [FG-4592] + CC(=O)Nc1cccc(-n2c(=O)n(C3CC3)c(=O)c3c(Nc4ccc(I)cc4F)n(C)c(=O)c(C)c32)c1 [Trametinib] (partner 0.02 µM)
Outline: as §1

FG-4592 + Foretinib = compound: Cc1nc(C(=O)NCC(=O)O)c(O)c2ccc(Oc3ccccc3)cc12 [FG-4592] + COc1cc2c(Oc3ccc(NC(=O)C4(C(=O)Nc5ccc(F)cc5)CC4)cc3F)ccnc2cc1OCCCN1CCOCC1 [Foretinib] (partner 0.25 µM)
Outline: as §1

FG-4592 + Pictilisib = compound: Cc1nc(C(=O)NCC(=O)O)c(O)c2ccc(Oc3ccccc3)cc12 [FG-4592] + CS(=O)(=O)N1CCN(Cc2cc3nc(-c4cccc5[nH]ncc45)nc(N4CCOCC4)c3s2)CC1 [Pictilisib] (partner 1 µM)
Outline: as §1

Row | Cell Line | relative viability (IU1-47 + Dasatinib; first compound 0.08 µM) | relative viability (IU1-47 + Dasatinib; first compound 0.253 µM) | relative viability (IU1-47 + Dasatinib; first compound 0.8 µM) | relative viability (IU1-47 + Dasatinib; first compound 2.53 µM) | relative viability (IU1-47 + Dasatinib; first compound 8 µM) | relative viability (FG-4592 + Trametinib; first compound 0.08 µM) | relative viability (FG-4592 + Trametinib; first compound 0.253 µM) | relative viability (FG-4592 + Trametinib; first compound 0.8 µM) | relative viability (FG-4592 + Trametinib; first compound 2.53 µM) | relative viability (FG-4592 + Trametinib; first compound 8 µM) | relative viability (FG-4592 + Foretinib; first compound 0.08 µM) | relative viability (FG-4592 + Foretinib; first compound 0.253 µM) | relative viability (FG-4592 + Foretinib; first compound 0.8 µM) | relative viability (FG-4592 + Foretinib; first compound 2.53 µM) | relative viability (FG-4592 + Foretinib; first compound 8 µM) | relative viability (FG-4592 + Pictilisib; first compound 0.08 µM) | relative viability (FG-4592 + Pictilisib; first compound 0.253 µM) | relative viability (FG-4592 + Pictilisib; first compound 0.8 µM) | relative viability (FG-4592 + Pictilisib; first compound 2.53 µM) | relative viability (FG-4592 + Pictilisib; first compound 8 µM)
1 | COR-L23 | 0.517 | 0.504 | 0.585 | 0.537 | 0.551 | 0.678 | 0.519 | 0.608 | 0.508 | 0.355 | 0.856 | 0.832 | 1.03 | 0.982 | 0.991 | 0.812 | 0.617 | 0.849 | 0.685 | 0.728
2 | ABC-1 | 0.696 | 0.603 | 0.615 |  | 0.542 |  |  |  |  |  | 0.938 | 0.929 | 1.03 | 1.03 | 0.76 | 0.778 |  | 0.55 | 0.7 | 0.539
3 | SW 900 | 0.664 | 0.529 | 0.7 | 0.556 | 0.742 |  | 0.819 |  | 0.871 | 0.619 | 0.823 | 0.947 | 1.08 | 1.17 | 0.833 |  |  |  |  | 
4 | NCI-H838 | 0.31 | 0.31 | 0.32 | 0.3 | 0.281 | 0.497 | 0.51 | 0.412 | 0.473 | 0.46 | 1.06 | 0.922 | 1.08 | 1.06 | 0.969 | 0.481 | 0.396 | 0.363 | 0.494 | 0.433
5 | NCI-H1648 |  |  |  |  |  | 0.485 | 0.445 |  | 0.456 | 0.493 |  |  |  |  |  |  |  |  |  | 
6 | A549 |  |  |  |  |  |  |  |  |  |  | 1.01 | 0.898 | 1.03 | 0.991 | 0.866 | 0.488 | 0.455 | 0.452 | 0.489 | 0.456
7 | A-427 | 0.851 | 0.656 | 0.728 |  | 0.642 | 0.772 | 0.724 | 0.677 | 0.72 | 0.723 | 0.98 | 1.11 | 1.03 | 0.98 | 1.18 | 0.674 | 0.739 | 0.503 | 0.661 | 0.742
8 | NCI-H1792 | 0.937 | 0.876 | 1.03 | 0.556 | 0.803 | 0.429 | 0.435 |  | 0.414 | 0.375 |  |  |  |  |  | 0.296 | 0.248 | 0.279 | 0.246 | 0.318
9 | LCLC-97TM1 | 0.98 | 0.971 | 1.03 | 0.841 | 0.776 | 0.211 | 0.241 |  | 0.225 | 0.148 | 0.9 | 0.901 | 0.876 | 0.887 | 0.866 | 0.22 | 0.192 | 0.138 |  | 0.169
10 | NCI-H1703 |  |  |  |  |  |  |  |  |  |  |  | 0.312 | 0.34 | 0.321 | 0.339 | 0.271 | 0.236 | 0.218 | 0.253 | 0.245
11 | LCLC-103H | 0.49 | 0.471 | 0.491 | 0.465 | 0.345 | 0.713 | 0.582 | 0.684 | 0.684 | 0.69 | 0.716 | 0.671 | 0.632 | 0.799 | 0.769 | 0.5 | 0.512 | 0.509 | 0.714 | 0.654
12 | PC-3 [JPC-3] | 1.01 | 1.02 | 0.982 | 0.956 | 0.788 | 0.773 | 0.601 |  | 0.72 | 0.844 | 1.09 | 0.937 | 1.06 | 1.04 | 1.02 | 0.717 | 0.7 | 0.59 | 0.764 | 0.791
13 | BEN | 0.296 | 0.358 | 0.394 |  | 0.304 | 0.916 | 0.913 | 0.783 | 0.879 | 0.871 | 0.522 | 0.597 | 0.607 | 0.764 | 0.464 | 0.442 | 0.485 | 0.429 | 0.561 | 0.459
14 | NCI-H1666 | 0.79 | 0.806 | 0.761 | 0.793 | 0.676 | 0.88 | 0.856 | 0.922 | 0.776 | 0.711 | 0.907 | 0.865 | 0.939 | 0.963 | 0.837 | 0.41 | 0.341 | 0.42 | 0.486 | 0.321
15 | LC-2-ad | 0.466 | 0.524 | 0.523 | 0.491 | 0.42 | 0.896 | 0.675 | 0.953 | 0.842 | 0.967 | 0.88 | 0.838 |  | 0.789 | 0.877 | 0.487 | 0.372 | 0.456 | 0.414 | 0.374
16 | SK-LU-1 | 0.208 | 0.187 | 0.182 | 0.18 | 0.159 | 0.402 | 0.395 | 0.461 | 0.422 | 0.379 | 0.866 | 0.646 | 0.767 | 0.881 | 0.631 | 0.436 | 0.418 | 0.582 | 0.55 | 0.428
17 | Calu-6 |  |  |  |  |  |  |  |  |  |  | 0.907 | 0.887 | 0.966 | 0.924 | 0.758 | 0.885 | 0.859 | 0.921 | 0.902 | 0.856
18 | NCI-H2342 | 0.328 | 0.344 | 0.32 | 0.301 | 0.307 | 0.755 | 0.841 | 0.746 | 0.738 | 0.641 | 1 | 1.01 | 1.06 | 0.959 | 0.993 |  |  |  |  | 
19 | EBC-1 |  |  |  |  |  |  |  |  |  |  | 0.11 | 0.0946 | 0.106 | 0.0866 | 0.1 | 0.401 | 0.371 | 0.417 | 0.387 | 0.335
20 | NCI-H1299 |  |  |  |  |  |  |  |  |  |  | 1.12 | 1.06 | 1.15 | 1.07 | 1.07 | 0.913 | 0.645 | 0.915 | 0.724 | 0.752
21 | NCI-H522 | 0.807 | 0.872 | 0.748 | 0.759 | 0.907 | 0.798 | 0.712 |  | 0.676 | 0.873 |  |  |  |  |  |  |  |  |  | 
22 | IA-LM |  |  |  |  |  |  |  |  |  |  | 1.19 | 1.14 | 1.18 | 1.14 | 1.08 | 0.358 | 0.291 | 0.308 | 0.295 | 0.201
